Patent US6858591B2, “Antibiotic AA 896 analogs” (Wyeth Holdings Corporation, priority 2001, dated 2005)
≈ marks a conversion by molar mass, not a printed value. Like-named read-outs stand apart in the source and are kept apart here.

Assays:
Experiment in all cases: In vitro MIC, broth dilution
Format in all cases: cell-based
[1] = test system: E. coli GC 4559; settings: Escherichia coli, GC4559
[2] = test system: E. coli GC 4560; settings: Escherichia coli, GC4560
[3] = test system: E. coli GC 3226; settings: Escherichia coli, GC3226
[4] = test system: S. marcescens GC 4077; settings: Serratia marcescens, GC4077
[5] = test system: C. albicans GC 3066; settings: Candida albicans, GC3066
[6] = test system: M. morganii GC 4531; settings: Morganella morganii, GC4531
[7] = test system: K. pneumoniae GC 4534; settings: Klebsiella pneumoniae, GC4534
[8] = test system: E. cloacae GC 3783; settings: Enterobacter cloacae, GC3783
[9] = test system: P. aeruginosa GC 4532; settings: Pseudomonas aeruginosa, GC4532
[10] = test system: CNS GC 4537
Summary of the method: (§1)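 Microdilution in Mueller-Hinton II per NCCLS: drug 64-0.06 μg/ml, bacteria 5×10^5 CFU/ml. Incubation 18 hours, 35° C, ambient air; MIC defined as lowest concentration inhibiting growth.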

[11] = test system: CNS GC 4538
Summary of the method: as §1

[12] = test system: CNS GC 4547
Summary of the method: as §1

[13] = test system: E. faecalis GC 2242; settings: Enterococcus faecalis, GC2242
Summary of the method: as §1

[14] = test system: E. faecalis GC 4555; settings: Enterococcus faecalis, GC4555
Summary of the method: as §1

[15] = test system: E. faecalis GC 842; settings: Enterococcus faecalis, GC842
Summary of the method: as §1

[16] = test system: S. aureus GC 1131; settings: Staphylococcus aureus, GC1131
Summary of the method: as §1

[17] = test system: S. aureus GC 2216; settings: Staphylococcus aureus, GC2216
Summary of the method: as §1

[18] = test system: S. aureus GC 4536; settings: Staphylococcus aureus, GC4536
Summary of the method: as §1

[19] = test system: E. coli GC 2203; settings: Escherichia coli, GC2203
[20] = test system: P. aeruginosa GC 2214; settings: Pseudomonas aeruginosa, GC2214
[21] = S. marcescens GC 4077, read-out: MIC
[22] = C. albicans GC 3066, read-out: MIC
[23] = M. morganii GC 4531, read-out: MIC
[24] = K. pneumoniae GC 4534, read-out: MIC
[25] = E. cloacae GC 3783, read-out: MIC
[26] = P. aeruginosa GC 4532, read-out: MIC
[27] = E. faecalis GC 2242, read-out: MIC
[28] = E. faecalis GC 4555, read-out: MIC
[29] = E. faecalis GC 842, read-out: MIC
[30] = S. aureus GC 1131, read-out: MIC
[31] = S. aureus GC 2216, read-out: MIC
[32] = S. aureus GC 4536, read-out: MIC
[33] = P. aeruginosa GC 2214, read-out: MIC

Row | MIC ([1]; E. coli GC 4559, read-out: MIC) | MIC ([2]; E. coli GC 4560, read-out: MIC) | MIC ([3]; E. coli GC 3226, read-out: MIC) | MIC [4, 21] | MIC [5, 22] | MIC [6, 23] | MIC [7, 24] | MIC [8, 25] | MIC [9, 26] | MIC ([10]; CNS GC 4537, read-out: MIC) | MIC ([11]; CNS GC 4538, read-out: MIC) | MIC ([12]; CNS GC 4547, read-out: MIC) | MIC [13, 27] | MIC [14, 28] | MIC [15, 29] | MIC [16, 30] | MIC [17, 31] | MIC [18, 32] | MIC ([19]; E. coli GC 2203, read-out: MIC) | MIC [20, 33] | SMILES | also measured
1 | > 128 µg/mL | > 128 µg/mL | > 128 µg/mL | > 128 µg/mL | 128 µg/mL (≈ 171 µM) | 128 µg/mL (≈ 171 µM) | > 128 µg/mL | > 128 µg/mL | 128 µg/mL (≈ 171 µM) | > 128 µg/mL | > 128 µg/mL | > 128 µg/mL | 128 µg/mL (≈ 171 µM) | > 128 µg/mL | > 128 µg/mL | > 128 µg/mL | > 128 µg/mL | > 128 µg/mL | > 128 µg/mL | 128 µg/mL (≈ 171 µM) | CCOC(=O)C(NCCCNC(=O)[C@@H](NC(=O)OCc1ccccc1)[C@@H](O)C(C)C)[C@@H](O)[C@H]1O[C@@H](n2ccc(=O)[nH]c2=O)[C@H](OC(C)=O)[C@@H]1OC(C)=O (stereo partly drawn) [Example 36, Ethyl (5S)-12-[(R)-[(2R,3R,4R,5R)-3,4-bis(acetyloxy)-5-(2,4-dioxo-3,4-dihydro-1(2H)-pyrimidinyl)tetrahydro-2-furanyl](hydroxy)methyl]-5-[(1S)-1-hydroxy-2-methylpropyl]-3,6-dioxo-1-phenyl-2-oxa-4,7,11-triazatridecan-13-oate] | –
2 | – | – | – | – | – | – | – | – | – | – | – | – | – | – | – | – | – | – | – | – | COc1ccc(Cn2c(=O)ccn([C@@H]3OC([C@H](O)[C@H](NCCCNC(=O)[C@H](Cc4ccccc4)NC(=O)OCc4ccccc4)C(=O)OC(C)(C)C)[C@@H](O[Si](C)(C)C(C)(C)C)[C@H]3O[Si](C)(C)C(C)(C)C)c2=O)cc1 (stereo partly drawn) [Example 12, tert-Butyl (5S,12S)-5-benzyl-12-[(R)-[(3R,4R,5R)-3,4-bis{[tertbutyl(dimethyl)silyl]oxy}-5-(3-(4-methoxybenzyl)-2,4-dioxo-3,4-dihydro-1(2H)-pyrimidinyl)tetrahydro-2-furanyl](hydroxy)methyl]-3,6-dioxo-1-phenyl-2-oxa-4,7,11-triazatridecan-13-oate] | MIC [1]: > 128 µg/mL; MIC [2]: 128 µg/mL (≈ 121 µM); MIC [3]: > 128 µg/mL; MIC [4]: 128 µg/mL (≈ 121 µM); MIC [5]: 128 µg/mL (≈ 121 µM); MIC [6]: 128 µg/mL (≈ 121 µM); MIC [7]: > 128 µg/mL; MIC [8]: 128 µg/mL (≈ 121 µM); MIC [9]: 128 µg/mL (≈ 121 µM); MIC [10]: > 128 µg/mL; MIC [11]: > 128 µg/mL; MIC [12]: 128 µg/mL (≈ 121 µM); MIC [13]: 128 µg/mL (≈ 121 µM); MIC [14]: 128 µg/mL (≈ 121 µM); MIC [15]: 128 µg/mL (≈ 121 µM); MIC [16]: > 128 µg/mL; MIC [17]: > 128 µg/mL; MIC [18]: > 128 µg/mL; MIC [19]: > 128 µg/mL; MIC [20]: 128 µg/mL (≈ 121 µM)
3 | > 128 µg/mL | > 128 µg/mL | > 128 µg/mL | > 128 µg/mL | 128 µg/mL (≈ 196 µM) | 128 µg/mL (≈ 196 µM) | > 128 µg/mL | > 128 µg/mL | 128 µg/mL (≈ 196 µM) | > 128 µg/mL | > 128 µg/mL | > 128 µg/mL | 128 µg/mL (≈ 196 µM) | > 128 µg/mL | > 128 µg/mL | > 128 µg/mL | > 128 µg/mL | > 128 µg/mL | > 128 µg/mL | 128 µg/mL (≈ 196 µM) | COc1ccc(Cn2c(=O)ccn([C@@H]3OC([C@H](O)[C@H](NCCCNC(=O)[C@@H](N)[C@H](C)O)C(=O)OC(C)(C)C)[C@@H](O)[C@H]3O)c2=O)cc1 (stereo partly drawn) [Example 45, tert-Butyl (2S,3R)-2-[(3-{[(2S,3S)-2-amino-3-hydroxybutanoyl]amino}propyl)amino]-3-[(3S,4R,5R)-3,4-dihydroxy-5-(3-(4-methoxybenzyl)-2,4-dioxo-3,4-dihydro-1(2H)-pyrimidinyl)-tetrahydro-2-furanyl]-3-hydroxypropanoate] | –

Row | SMILES | MIC ([1]; E. coli GC 4559, read-out: MIC) | MIC ([2]; E. coli GC 4560, read-out: MIC) | MIC ([3]; E. coli GC 3226, read-out: MIC) | MIC [4, 21] | MIC [5, 22] | MIC [6, 23] | MIC [7, 24] | MIC [8, 25] | MIC [9, 26] | MIC ([10]; CNS GC 4537, read-out: MIC) | MIC ([11]; CNS GC 4538, read-out: MIC) | MIC ([12]; CNS GC 4547, read-out: MIC) | MIC [13, 27] | MIC [14, 28] | MIC [15, 29] | MIC [16, 30] | MIC [17, 31] | MIC [18, 32] | MIC ([19]; E. coli GC 2203, read-out: MIC) | MIC [20, 33] | also measured
4 | CC(C)C[C@H](N)C(=O)NCCCN[C@H](C(=O)OC(C)(C)C)[C@@H](O)C1O[C@@H](n2ccc(=O)[nH]c2=O)[C@H](O[Si](C)(C)C(C)(C)C)[C@@H]1O[Si](C)(C)C(C)(C)C (stereo partly drawn) [Example 7, tert-Butyl (2S,3R)-2-[(3-{[(2S)-2-amino-4-methylpentanoyl]amino}propyl)amino]-3-[(3R,4R,5R)-3,4-bis{[tert-butyl(dimethyl)silyl]oxy}-5-(2,4-dioxo-3,4-dihydro-1(2H)-pyrimidinyl)tetrahydro-2-furanyl]-3-hydroxypropanoate] | > 128 µg/mL | 32 µg/mL (≈ 41.4 µM) | > 128 µg/mL | 128 µg/mL (≈ 166 µM) | 32 µg/mL (≈ 41.4 µM) | 128 µg/mL (≈ 166 µM) | 128 µg/mL (≈ 166 µM) | 128 µg/mL (≈ 166 µM) | 128 µg/mL (≈ 166 µM) | 1 µg/mL (≈ 1.3 µM) | 2 µg/mL (≈ 2.59 µM) | 2 µg/mL (≈ 2.59 µM) | 2 µg/mL (≈ 2.59 µM) | 2 µg/mL (≈ 2.59 µM) | 2 µg/mL (≈ 2.59 µM) | 1 µg/mL (≈ 1.3 µM) | 2 µg/mL (≈ 2.59 µM) | 1 µg/mL (≈ 1.3 µM) | > 128 µg/mL | 128 µg/mL (≈ 166 µM) | –
